# Assay results reported in patent publication US8501715B2, “Oxidized lipids and uses thereof in the treatment of inflammatory diseases and disorders” (Vascular Biogenics Ltd., priority 2003, dated 2013).
# Experiments:
# [1] = tested on: IFN-γ; experiment: RT-PCR cytokine expression in the aorta: IFN-γ; type: in vivo; conditions: oral 1 mg/mouse 5 times every other day, 8 weeks after final administration
# Procedure: (§1) The effect of ALLE, CI-201, its corresponding acetal derivatives Et-acetal and Me-acetal (Compounds IIa and IIb, FIG. 10) and oxLDL on cytokine expression in the target organ—the aorta—was evaluated using RT-PCR as described hereinabove. […] Oral administrations took place 5 times every other day.
# [2] = tested on: IL-12; experiment: RT-PCR cytokine expression in the aorta: IL-12; type: in vivo; conditions: oral 1 mg/mouse 5 times every other day, 8 weeks after final administration
# Procedure: as §1
# [3] = tested on: Apo-E KO mice; experiment: Assessment of atherosclerosis: lesion area in the aortic sinus; type: in vivo, mouse
# [4] = tested on: IL-10; experiment: RT-PCR cytokine expression in the aorta: IL-10; type: in vivo, mouse; conditions: oral 1 mg/mouse 5 times every other day, 8 weeks after final administration
# Procedure: as §1
# [5] = tested on: Apo-E KO mice; experiment: Aorta lesion (% from total area); type: in vivo; conditions: oral 1 mg/mouse, 5 feedings every other day every 4 weeks over 12 weeks; 24.5 week old mice; End
# Description: Assessment of Atherosclerosis: Quantification of atherosclerotic fatty streak lesions was done by calculating the lesion size in the aortic sinus as previously described (Paigen et al. Quantitative assessment of atherosclerotic lesions in mice. Atherosclerosis 1987; 68: […]) and by calculating the lesion size in the aorta. Briefly, after perfusion with saline Tris EDTA, the heart and the aorta were removed from the animals and the peripheral fat cleaned carefully. The upper section of the heart was embedded in OCT medium (10.24% w/w polyvinyl alcohol; 4.26% w/w polyethylene glycol; 85.50 w/w nonreactive ingredients) and frozen. […] Sections were evaluated for fatty streak lesions after staining with oil-red O. Lesion areas per section were scored on a grid (Rubin et al. Inhibition of early atherogenesis in transgenic mice by human apoplipoprotein A-I. Nature 1991; 353: 265-267) by an observer counting unidentified, numbered specimens. […]
# Their effect on the triglyceride and cholesterol fractions of VLDL was also monitored by FPLC. […]
# (§2) Mice were bled prior to feeding (Time 0), after the 2nd set of feeding and at the conclusion of the experiment (End) for determination of lipid profile, lipid fractionation and plasma collection. Atherosclerosis was assessed as described above in the aorta sinus and aorta. […] Weight was recorded every 2 weeks throughout the experiment. […]
# [6] = FPLC analysis of triglyceride and cholesterol content of VLDL; type: in vivo; conditions: oral 1 mg/mouse, 3 sets over 12 weeks; measured 9 weeks from t=0; FPLC of pooled blood
# Procedure: (§3) 24.5 weeks old Apo-E KO mice were fed 1 mg/mouse L-ALLE (triangle) (n=11), D-ALLE (inverted triangle) (n=9) or POVPC (square) (n=10) every other day for 5 days, at 4 weeks intervals over a 12 weeks period. Control mice were fed an identical volume (0.2 ml) and regimen of PBS (circle) (n=10). Triglyceride content (Tg, mg/ml) was measured 9 weeks from t=0, by enzymatic colorimetric method in the VLDL fractions following separation of pooled blood samples on FPLC, as described in the materials and methods section that follows.
# as §3, with “Cholesterol” for “Triglyceride”, “(Cholesterol,” for “(Tg,”
# FPLC Analysis: Fast Protein Liquid Chromatography analysis of cholesterol and lipid content of lipoproteins was performed using Superose 6 HR 10/30 column (Amersham Pharmacia Biotech, Inc, Peapack, N.J.) on a FPLC system (Pharmacia LKB. FRAC-200, Pharmacia, Peapack, N.J.). A minimum sample volume of 300 μl (blood pooled from 3 mice was diluted 1:2 and filtered before loading) was required in the sampling vial for the automatic sampler to completely fill the 200 μl sample loop. Fractions 10-40 were collected, each fraction contained 0.5 ml. A 250 μl sample from each fraction was mixed with freshly prepared cholesterol reagent or triglyceride reagent respectively, incubated for 5 minutes at 37° C. and assayed spectrophotometrically at 500 nm.
# Their effect on the triglyceride and cholesterol fractions of VLDL was also monitored by FPLC. […] male, 24.5 week old Apo-E KO mice were divided into 5 groups. In group A (n=11) mice were fed with 1 mg/mouse L-ALLE suspended in 0.2 ml PBS, administered by gavage, as described above, every other day for 5 days. In group B (n=9) mice were fed with 1 mg/mouse D-ALLE suspended in 0.2 ml PBS, administered per os, as described above, every other day for 5 days. In group C (n=10) mice were fed with 1 mg/mouse POVPC suspended in 0.2 ml PBS, administered by gavage, as described above, every other day for 5 days. […]
# as §2
# [7] = tested on: IL12p40; experiment: p40 production by activated BMDC's (ELISA); type: cell-based, mouse; conditions: BMDC's, 1 h pre-incubation, PGN 10 μg/ml, 24 hours; preliminary results
compound,measurement,setting,value
"2,5′-Aldehyde Lecithin Ether [ALLE]",IFN-γ expression in the aorta versus PBS,[1],Reduced expression levels
same,IL-12 expression in the aorta versus PBS,[2],reduced levels
same,protection from atherogenesis,[3]; ALLE by both oral (1 mg/mouse) and nasal (10 μg/mouse) administrations,approximately 50%
same,protection from atherosclerotic lesion formation,[3]; i.p. immunization with ALLE (mixture of D- and L-),> 50%
same,Lesion size,"[3]; i.p. immunization x4 every 2 weeks (ALLE 150 μg/mouse coupled to PPD; PPD alone), 4.5 weeks post 4th immunization",101000 ± 8276 μm^2
same,Lesion size,"[3]; nasal 10 μg/mouse L-ALLE every other day for 3 days, 8 weeks after last exposure",82708 ± 10986 μm^2
same,Lesion size,"[3]; oral 10 μg/mouse L-ALLE+D-ALLE every other day for 5 days, 8 weeks after last feeding",103889 ± 14320 μm^2
same,Lesion size,"[3]; oral 1 mg/mouse L-ALLE every other day for 5 days, 8 weeks after last feeding",76944 ± 17072 μm^2
same,Lesion size,"[3]; oral 1 mg/mouse L-ALLE+D-ALLE every other day for 5 days, 8 weeks after last feeding",85278 ± 11633 μm^2
same,"atherogenesis in Apo-E KO mice, oral administration (summary of earlier examples)",[3]; oral administration,substantially inhibited atherogenesis
same,protection from atherosclerosis,"[3]; oral administration of ALLE, 10 μg-1 mg/mouse",> 50%
same,IL-10 expression in the aorta versus PBS,[4],elevated levels
"C=CCCCCO[C@H](COCCCCCCCCCCCCCCCC)COP(=O)([O-])OCC[N+](C)(C)C [Compound V, 1-Hexadecyl-2-(5′-hexenyl)-sn-glycero-3-phosphocholine]",atherogenesis progression,"[3]; oral 0.1 μg/dose, 3 monthly sets of 5 administrations",did not effect atherogenesis progression
same,Sinus Lesion,"[3]; oral 0.1 μg/dose, 3 monthly sets of 5 administrations, 12 weeks, 23-26 weeks old mice, no statistical difference to PBS",238000 ± 32200 µm²
same,Sinus Lesion,"[3]; oral 0.2 mg/mouse every other day for 5 days, 8 weeks after last administration",334622 ± 26100 μm^2
same,Sinus Lesion,"[3]; oral 1 mg/mouse every other day for 5 days, 8 weeks after last administration",361166 ± 24068 μm^2
same,Sinus Lesion,"[3]; oral 5 mg/mouse every other day for 5 days, 8 weeks after last administration",307291 ± 22689 μm^2
same,effect on atherogenesis,[3]; oral 0.2-5 mg/mouse every other day for 5 days,no effect
"CCCCCCCCCCCCCCCCOC[C@H](COP(=O)([O-])OCC[N+](C)(C)C)OCCCCC=O [D-ALLE, 1-hexadecyl-2-(5′-oxo-pentanyl)-sn-glycero-3-phosphocholine]",Aorta lesion (% from total area),[5],4.5 % from total area
same,cholesterol content of VLDL,[6],reduction
same,triglyceride content of VLDL,[6],reduction
same,Sinus Lesion,"[3]; oral 1 mg/mouse, 5 feedings every other day every 4 weeks over 12 weeks, 24.5 week old mice, End (12 weeks after first feeding)",245938 ± 20474 μm^2
same,protection from atheromatous progression,"[3]; oral 1 mg/mouse, late stage, compared with lesion scores at 24.5 weeks",nearly complete protection
"CCCCCCCCCCCCCCCCOC[C@H](COP(=O)([O-])OCC[N+](C)(C)C)OC(=O)CCC [PAF2C, 1-O-Hexadecyl-2-O-Butyroyl-sn-Glycero-3-Phosphocholine, reference compound]","p40 production / p40 inhibition, structure-function analysis",[7],efficient in p40 inhibition
"CCCCCCCCCCCCCCCCOC[C@H](COP(=O)([O-])OCC[N+](C)(C)C)OC(C)=O [PAF, 1-O-Hexadecyl-2-Acetoyl-sn-Glycero-3-Phosphocholine, reference compound]","p40 production / p40 inhibition, structure-function analysis",[7],efficient in p40 inhibition
CCCCCCCCCCCCCCCCOCC(COP(=O)([O-])OCC[N+](C)(C)C)OCCCCC(=O)OC (stereo not shown) [methyl ester of CI-201],"p40 production / p40 inhibition, structure-function analysis",[7],restored p40 production
CCCCCCCCCCCCCCCCOCC(CO)OCCCCC(=O)O (stereo not shown) [non phosphorylated metabolite of CI-201],"p40 production / p40 inhibition, structure-function analysis",[7],restored p40 production
"CCCCCCCCCCCCCCCCOC[C@H](COP(=O)(O)OCCN)OCCCCC(=O)O [phosphoethanol amine, 1-O-Hexadecyl-2-(4′-carboxybutyl)-sn-Glycero-3-Phosphoethanolamine]","p40 production / p40 inhibition, structure-function analysis",[7],did not alter the molecule's p40 inhibitory effect
